Assay results: ChEMBL document CHEMBL1128029, “Synthesis and biological properties of a new series of anti-MRSA -lactams; 2-(thiazol-2-ylthio)carbapenems” (Bioorg Med Chem Lett, 1994)
Values after ≈ are worked out from the molar mass of the structure shown.

What was measured:
[1] = tested on: Staphylococcus epidermidis; experiment: In vitro minimum inhibitory concentration against Staphylococcus epidermidis IAM1296; format: functional
Staphylococcus aureus [2] = experiment: In vitro minimum inhibitory concentration against Staphylococcus aureus 209p; format: functional
[3] = target: T1, Dipeptidase 1 (Sus scrofa) (UniProt P22412); experiment: Time of enzyme-catalyzed hydrolysis from 500 uM to 400 uM in the presence of purified renal DHP-1 of swine
T1 sequence (whole entry): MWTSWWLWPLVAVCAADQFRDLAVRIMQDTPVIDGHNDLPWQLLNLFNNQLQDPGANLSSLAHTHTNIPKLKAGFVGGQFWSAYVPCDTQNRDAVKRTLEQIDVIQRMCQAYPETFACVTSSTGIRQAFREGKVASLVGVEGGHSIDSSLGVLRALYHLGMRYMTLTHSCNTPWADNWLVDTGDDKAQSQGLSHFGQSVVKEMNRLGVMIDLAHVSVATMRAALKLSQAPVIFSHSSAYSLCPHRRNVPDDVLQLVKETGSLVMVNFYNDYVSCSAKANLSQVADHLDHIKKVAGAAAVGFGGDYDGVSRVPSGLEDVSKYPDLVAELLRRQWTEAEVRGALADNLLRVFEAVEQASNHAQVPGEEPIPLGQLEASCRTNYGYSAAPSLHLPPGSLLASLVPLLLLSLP

Staphylococcus aureus [4] = experiment: In vitro minimum inhibitory concentration against Staphylococcus aureus SP-7928; format: functional
Albumin = Albumin (Homo sapiens, UniProt P02768); experiment: Binding affinity towards Human Serum albumin.
Albumin, sequence (P02768 whole entry): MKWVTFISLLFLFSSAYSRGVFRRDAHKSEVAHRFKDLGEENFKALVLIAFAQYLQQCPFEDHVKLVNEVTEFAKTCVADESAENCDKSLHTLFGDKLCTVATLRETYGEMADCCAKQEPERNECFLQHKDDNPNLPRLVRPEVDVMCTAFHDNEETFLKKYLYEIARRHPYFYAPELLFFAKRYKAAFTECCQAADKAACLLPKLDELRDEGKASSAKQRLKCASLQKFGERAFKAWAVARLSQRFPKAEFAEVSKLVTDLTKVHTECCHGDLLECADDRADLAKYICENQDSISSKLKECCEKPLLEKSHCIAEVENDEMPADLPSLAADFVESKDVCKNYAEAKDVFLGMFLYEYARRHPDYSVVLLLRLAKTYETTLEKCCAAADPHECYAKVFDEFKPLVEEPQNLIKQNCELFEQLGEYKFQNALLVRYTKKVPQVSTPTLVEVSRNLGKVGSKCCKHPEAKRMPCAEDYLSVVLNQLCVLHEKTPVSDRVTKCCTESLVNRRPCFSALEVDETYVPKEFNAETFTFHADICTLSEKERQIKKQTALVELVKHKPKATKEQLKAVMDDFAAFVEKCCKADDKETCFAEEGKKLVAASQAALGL

Staphylococcus aureus [5] = experiment: In vitro minimum inhibitory concentration against Staphylococcus aureus MS9408; format: functional
Klebsiella pneumoniae = experiment: In vitro minimum inhibitory concentration against Klebsiella pneumoniae ATCC 10031; format: functional
Escherichia coli = experiment: In vitro minimum inhibitory concentration against Escherichia coli NIHJ JC-2; format: functional

Structure (SMILES)	MIC [1] [µg/mL]	MIC (Staphylococcus aureus [2]) [µg/mL]	TIME [3] [h]	MIC (Staphylococcus aureus [4]) [µg/mL]	Binding (Albumin) [%]	MIC (Staphylococcus aureus [5]) [µg/mL]	MIC (Klebsiella pneumoniae) [µg/mL]	MIC (Escherichia coli) [µg/mL]
C[C@@H](O)[C@H]1C(=O)N2C(C(=O)O)=C(Sc3nc(-c4ccccc4)cs3)[C@H](C)[C@H]12	0.025 (≈ 0.0621 µM)	< 0.013	0.163	0.78 (≈ 1.94 µM)	> 94	0.1 (≈ 0.248 µM)	0.1 (≈ 0.248 µM)	6.25 (≈ 15.5 µM)
C[C@@H](O)[C@H]1C(=O)N2C(C(=O)O)=C(Sc3nc(-c4ccc(N)cc4)cs3)[C@H](C)[C@H]12	0.025 (≈ 0.0599 µM)	< 0.013	0.3	1.56 (≈ 3.74 µM)	98	0.2 (≈ 0.479 µM)	0.05 (≈ 0.12 µM)	6.25 (≈ 15 µM)
C[C@@H](O)[C@H]1C(=O)N2C(C(=O)O)=C(Sc3nc(-c4ccc5ccncc5c4)cs3)[C@H](C)[C@H]12	0.025 (≈ 0.0551 µM)	< 0.006	0.162	0.78 (≈ 1.72 µM)	99	0.1 (≈ 0.22 µM)	0.2 (≈ 0.441 µM)	12.5 (≈ 27.6 µM)
C[C@@H](O)[C@H]1C(=O)N2C(C(=O)O)=C(SCCN=CN)C[C@H]12 [IMIPENEM ANHYDROUS]	–	–	–	–	< 10	–	–	–
C[C@@H](O)[C@H]1C(=O)N2C(C(=O)[O-])=C(Sc3nc(-c4ccc[n+](C)c4)cs3)[C@H](C)[C@H]12	0.025 (≈ 0.0599 µM)	< 0.013	0.467	1.56 (≈ 3.74 µM)	7.8	0.2 (≈ 0.479 µM)	0.05 (≈ 0.12 µM)	0.39 (≈ 0.934 µM)
C[C@@H](O)[C@H]1C(=O)N2C(C(=O)[O-])=C(Sc3nc(-c4ccc5cc[n+](C)cc5c4)cs3)[C@H](C)[C@H]12	0.013 (≈ 0.0278 µM)	< 0.006	0.2	0.78 (≈ 1.67 µM)	59	0.05 (≈ 0.107 µM)	0.05 (≈ 0.107 µM)	3.13 (≈ 6.69 µM)
C[C@@H](O)[C@H]1C(=O)N2C(C(=O)O)=C(Sc3nc4ccccc4s3)[C@H](C)[C@H]12	0.2 (≈ 0.531 µM)	0.025 (≈ 0.0664 µM)	–	3.13 (≈ 8.31 µM)	> 94	0.78 (≈ 2.07 µM)	0.78 (≈ 2.07 µM)	25 (≈ 66.4 µM)
C[C@@H](O)[C@H]1C(=O)N2C(C(=O)O)=C(Sc3nc(-c4ccc(CN)cc4)cs3)[C@H](C)[C@H]12	0.025 (≈ 0.0579 µM)	< 0.006	–	1.56 (≈ 3.61 µM)	87	0.2 (≈ 0.463 µM)	0.2 (≈ 0.463 µM)	1.56 (≈ 3.61 µM)
C[C@@H](O)[C@H]1C(=O)N2C(C(=O)O)=C(SCCNC=N)C[C@H]12 [IMIPENEM ANHYDROUS]	0.2 (≈ 0.668 µM)	0.013 (≈ 0.0434 µM)	0.2	50 (≈ 167 µM)	–	0.78 (≈ 2.61 µM)	0.1 (≈ 0.334 µM)	0.1 (≈ 0.334 µM)
C[C@@H](O)[C@H]1C(=O)N2C(C(=O)O)=C(Sc3nc(-c4ccc(C(N)=O)cc4)cs3)[C@H](C)[C@H]12	0.025 (≈ 0.0561 µM)	< 0.006	0.2	1.56 (≈ 3.5 µM)	99	0.2 (≈ 0.449 µM)	0.1 (≈ 0.224 µM)	6.25 (≈ 14 µM)
C[C@@H](O)[C@H]1C(=O)N2C(C(=O)O)=C(Sc3nc(-c4ccc(Cl)cc4)cs3)[C@H](C)[C@H]12	0.025 (≈ 0.0572 µM)	< 0.013	0.165	1.56 (≈ 3.57 µM)	> 94	0.2 (≈ 0.458 µM)	0.2 (≈ 0.458 µM)	12.5 (≈ 28.6 µM)
C[C@@H](O)[C@H]1C(=O)N2C(C(=O)[O-])=C(Sc3nc(-c4ccc[n+](CC(N)=O)c4)cs3)[C@H](C)[C@H]12	0.025 (≈ 0.0543 µM)	< 0.006	0.283	1.56 (≈ 3.39 µM)	24	0.2 (≈ 0.434 µM)	0.05 (≈ 0.109 µM)	0.39 (≈ 0.847 µM)
CCCc1csc(SC2=C(C(=O)O)N3C(=O)[C@H]([C@@H](C)O)[C@H]3[C@H]2C)n1	0.05 (≈ 0.136 µM)	0.025 (≈ 0.0678 µM)	0.2	3.13 (≈ 8.49 µM)	96	0.39 (≈ 1.06 µM)	0.2 (≈ 0.543 µM)	12.5 (≈ 33.9 µM)
Cc1csc(SC2=C(C(=O)O)N3C(=O)[C@H]([C@@H](C)O)[C@H]3[C@H]2C)n1	0.05 (≈ 0.147 µM)	0.025 (≈ 0.0734 µM)	0.217	3.13 (≈ 9.19 µM)	93	0.39 (≈ 1.15 µM)	0.05 (≈ 0.147 µM)	3.13 (≈ 9.19 µM)
Cc1ccc(-c2csc(SC3=C(C(=O)O)N4C(=O)[C@H]([C@@H](C)O)[C@H]4[C@H]3C)n2)cc1	0.025 (≈ 0.06 µM)	< 0.006	0.153	3.13 (≈ 7.51 µM)	> 94	0.2 (≈ 0.48 µM)	0.39 (≈ 0.936 µM)	12.5 (≈ 30 µM)
C[C@@H](O)[C@H]1C(=O)N2C(C(=O)O)=C(Sc3nccs3)[C@H](C)[C@H]12	0.1 (≈ 0.306 µM)	0.025 (≈ 0.0766 µM)	0.25	12.5 (≈ 38.3 µM)	69	0.78 (≈ 2.39 µM)	0.05 (≈ 0.153 µM)	0.78 (≈ 2.39 µM)
C[C@@H](O)[C@H]1C(=O)N2C(C(=O)O)=C(Sc3nc(-c4ccncc4)cs3)[C@H](C)[C@H]12	0.05 (≈ 0.124 µM)	< 0.013	0.267	3.13 (≈ 7.76 µM)	97	0.2 (≈ 0.496 µM)	0.2 (≈ 0.496 µM)	6.25 (≈ 15.5 µM)
C[C@@H](O)[C@H]1C(=O)N2C(C(=O)[O-])=C(Sc3nc(-c4cc[n+](C)cc4)cs3)[C@H](C)[C@H]12	0.025 (≈ 0.0599 µM)	< 0.006	0.383	1.56 (≈ 3.74 µM)	12	0.1 (≈ 0.24 µM)	0.025 (≈ 0.0599 µM)	0.39 (≈ 0.934 µM)
C[C@@H](O)[C@H]1C(=O)N2C(C(=O)O)=C(Sc3ncc(-c4ccccc4)s3)[C@H](C)[C@H]12	0.39 (≈ 0.969 µM)	< 0.006	0.25	12.5 (≈ 31.1 µM)	> 94	0.39 (≈ 0.969 µM)	0.39 (≈ 0.969 µM)	25 (≈ 62.1 µM)
Cc1nc(SC2=C(C(=O)O)N3C(=O)[C@H]([C@@H](C)O)[C@H]3[C@H]2C)sc1C	0.1 (≈ 0.282 µM)	0.025 (≈ 0.0705 µM)	0.383	6.25 (≈ 17.6 µM)	> 75	0.78 (≈ 2.2 µM)	0.2 (≈ 0.564 µM)	3.13 (≈ 8.83 µM)
C[C@@H](O)[C@H]1C(=O)N2C(C(=O)[O-])=C(Sc3nc(-c4cc[n+](CC(N)=O)cc4)cs3)[C@H](C)[C@H]12	0.05 (≈ 0.109 µM)	< 0.006	0.35	1.56 (≈ 3.39 µM)	15	0.2 (≈ 0.434 µM)	0.025 (≈ 0.0543 µM)	0.2 (≈ 0.434 µM)
C[C@@H](O)[C@H]1C(=O)N2C(C(=O)O)=C(Sc3nc(-c4cccnc4)cs3)[C@H](C)[C@H]12	0.025 (≈ 0.062 µM)	< 0.013	0.0533	1.56 (≈ 3.87 µM)	97	0.2 (≈ 0.496 µM)	0.05 (≈ 0.124 µM)	6.25 (≈ 15.5 µM)
